In PMC7402526, “An in vitro quantitative systems pharmacology approach for deconvolving mechanisms of drug-induced, multilineage cytopenias” (PLoS Computational Biology, 2020):

Assays:
Assay type in all cases: cell-based, human
[1] = test system: neutrophils (neutrophil-lin); experiment: MLTA, Neut: concentration-response and QSP model fit; settings: for EC50 / EmaxT,Neut: QSP model parameter, sheet EC50_parameters, Neut; for Emax_drug_Neut: parameter from QSP model fitting
Description: (§1) A custom optimized cytokine cocktail was developed using commercially available cytokines (Peprotech, New Jersey) to facilitate simultaneous multi-lineage differentiation and self-renewal of freeze-thawed primary human bone marrow-derived CD34+ cells in SFEM II media (cells and media from StemCell Technologies, Vancouver). Cultures were carried out in ultra-low attachment 96-well plates (Corning, New York) with test article added on day 0 and cultured at 37°C, 85% relative humidity, and 5% CO2 for six days before interrogating drug impact via 17-parameter flow cytometry.
(§2) The flow cytometry panel used to define hematopoietic subsets was composed of CD34-PECy7, CD90-PECY5, CD38-AF488, CD371-PE, CD45Ra-BV421, CD14-BV605, CD42b-AF647, CD10-PEDazzle594, CD235a-PerCPCy5.5 (BioLegend, California), CD15-BUV395, CD41a-APCH7, CD71-BV786 (BD Biosciences, California), and DAPI for dead cell exclusion (ThermoFisher, California). In short, Day 6 cells were harvested, FcR-blocked (FcR binding inhibitor, ThermoFisher), surface-stained, then analyzed in a buffer containing TruCount Control Beads using a BD LSR Fortessa SORP fitted with a high-throughput sampler (BD Biosciences, California). Data was analyzed in Diva 6.0.2 and exported to CSV where after all cell data was transformed to cell per mL then normalized on a per-donor basis to untreated control wells to determine drug impact.
(§3) Donor material was collected and cultured as described above. The number of replicate donor samples per drug ranged from 2–7 and varied per drug (S1 Table). Drug treatment was added at time 0 and cells were maintained in culture for 6 days. Concentrations tested for each drug compound are contained in S1 Table. Concentrations were selected to span a range that is clinically useful. Following treatment, cell populations were measured using flow cytometry. We extracted cell counts from flow cytometry data, normalized to bead counts, and corrected for well volume.
(§4) Each well was normalized to the average of six vehicle control wells. For drugs that were tested across multiple runs of the assay, vehicle-normalized donor data were pooled, and we used the average of these pooled data for further modeling. Normalized data used as model inputs are included in S1 Table.
(§5) We implemented drug effects using an Emax model for the drug’s effect on each cell type. The 13 maximum effect parameters (EmaxT,C) are unitless and can vary between 0 and 2 and where a subscript, C, represents one of the previously described 13 cell types. We adapted a traditional Emax model using the equations below. We interpreted EmaxT values less than or equal to one as anti-proliferative, and EmaxT values greater than one as indicating a cell-killing mechanism in addition to anti-proliferation. The relationships for these effects are included in the model using the following equations. Eq 2 describes the drug anti-proliferative effect in the net proliferation rate for a given cell type. Eq 3 describes the cell-killing EmaxCK effect.
(§6) Towards the estimation of mechanistic parameters, we considered different formulations: (a) weighting the objective value to prioritize fitting dead cells and (b) using regularization methodology to encourage a parsimonious solution. We assessed the contributions of these formulations using mean-squared error and goodness of fit plots for drugs with known mechanisms. […] Further, we used L1 regularization to penalize parameters […] to help identify a parsimonious set of parameters to explain drug effects.

[2] = test system: granulocyte-macrophage progenitor (GMPs); experiment: MLTA, GMPs: concentration-response and QSP model fit; settings: for EC50 / EmaxT,GMP: QSP model parameter, sheet EC50_parameters, GMPs; for Emax_drug_GMP: parameter from QSP model fitting
Description: as §1, §2, §3, §4, §5, §6

granulocytes (Gran-lin) = experiment: MLTA, Gran: concentration-response and QSP model fit; settings: for EC50 / EmaxT,Gran: QSP model parameter, sheet EC50_parameters, Gran; for Emax_drug_Gran: parameter from QSP model fitting
Description: as §1, §2, §3, §4, §5, §6

[3] = test system: granulocyte progenitor (Gran-lin prog); experiment: MLTA, GranP: concentration-response and QSP model fit; settings: for EmaxT,GranP / EC50: QSP model parameter, sheet EC50_parameters, GranP; for EC50: read-out: EC50GranP; for Emax_drug_GranP: parameter from QSP model fitting
Description: as §1, §2, §3, §4, §5, §6

[4] = test system: multi-potent progenitors (MPPs); experiment: MLTA, MPPs: concentration-response and QSP model fit; settings: for EC50 / EmaxT,MPP: QSP model parameter, sheet EC50_parameters, MPPs; for Emax_drug_MPP: parameter from QSP model fitting
Description: as §1, §2, §3, §4, §5, §6

[5] = test system: hematopoietic stem cells (HSCs); experiment: Multi-lineage toxicity assay (MLTA), HSCs: concentration-response and QSP model fit; set-up: EmaxAP,HSC / EmaxT,HSC / Emax_drug_HSC: unitless, 0–2; ≤1 anti-proliferative, >1 adds cell killing; settings: for EC50 / EmaxT,HSC: QSP model parameter, sheet EC50_parameters, HSCs; for Emax_drug_HSC: parameter from QSP model fitting
Description: as §1, §2, §3, §4, §5, §6

B cells (B-lin) = experiment: MLTA, B-lin: concentration-response and QSP model fit; settings: for EC50 / EmaxT,B: QSP model parameter, sheet EC50_parameters, B; for Emax_drug_B: parameter from QSP model fitting
Description: as §1, §2, §3, §4, §5, §6

[6] = test system: late erythroid cells (Eryth II); experiment: MLTA, ErythII: concentration-response and QSP model fit; settings: for EmaxT,ErythroidII / EC50: QSP model parameter, sheet EC50_parameters, Erythroid II; for EC50: read-out: EC50ErythroidII; for Emax_drug_ErythroidII: parameter from QSP model fitting
Description: as §1, §2, §3, §4, §5, §6

MK cells (MK-lin) = experiment: MLTA, MK: concentration-response and QSP model fit; settings: for EC50 / EmaxT,MK: QSP model parameter, sheet EC50_parameters, MK; for Emax_drug_MK: parameter from QSP model fitting
Description: as §1, §2, §3, §4, §5, §6

[7] = test system: lymphocyte progenitors (LymP); experiment: MLTA, LymP: concentration-response and QSP model fit; settings: for EC50 / EmaxT,LymP: QSP model parameter, sheet EC50_parameters, LymP; for Emax_drug_LymP: parameter from QSP model fitting
Description: as §1, §2, §3, §4, §5, §6

[8] = test system: monocyte progenitors (monocyte prog); experiment: MLTA, MonoP: concentration-response and QSP model fit; settings: for EmaxT,MonoP / EC50: QSP model parameter, sheet EC50_parameters, MonoP; for EC50: read-out: EC50MonoP; for Emax_drug_MonoP: parameter from QSP model fitting
Description: as §1, §2, §3, §4, §5, §6

monocytes (monocyte-lin) = experiment: MLTA, Mono: concentration-response and QSP model fit; settings: for EC50 / EmaxT,Mono: QSP model parameter, sheet EC50_parameters, Mono; for Emax_drug_Mono: parameter from QSP model fitting
Description: as §1, §2, §3, §4, §5, §6

[9] = test system: early erythroid cells (Eryth I); experiment: MLTA, ErythI: concentration-response and QSP model fit; settings: for EmaxT,ErythroidI / EC50: QSP model parameter, sheet EC50_parameters, Erythroid I; for EC50: read-out: EC50ErythroidI; for Emax_drug_ErythroidI: parameter from QSP model fitting
Description: as §1, §2, §3, §4, §5, §6

| Compound | EC50 [1] | EmaxT,Neut [1] | Emax_drug_Neut [1] | EC50 [2] | EmaxT,GMP [2] | Emax_drug_GMP [2] | EC50 (granulocytes (Gran-lin)) | EmaxT,Gran (granulocytes (Gran-lin)) | Emax_drug_Gran (granulocytes (Gran-lin)) | EmaxT,GranP [3] | EC50 [3] | Emax_drug_GranP [3] | EC50 [4] | EmaxT,MPP [4] | Emax_drug_MPP [4] | EC50 [5] | EmaxT,HSC [5] | Emax_drug_HSC [5] | EC50 (B cells (B-lin)) | EmaxT,B (B cells (B-lin)) | also measured |
| --- | --- | --- | --- | --- | --- | --- | --- | --- | --- | --- | --- | --- | --- | --- | --- | --- | --- | --- | --- | --- | --- |
| O=c1[nH]cc(F)c(=O)[nH]1 [5-FU] | 1030 nM | 0.2668 | 0.2668 | 753 nM | 1.5687 | 1.5687 | 0.117 nM | 0.1807 | 0.1807 | 0.0162 | 302 nM | 0.0162 | 939 nM | 0.000528 | 0.000528 | 1910 nM | 0.7982 | 0.7982 | 1090 nM | 0.8249 | Emax_drug_B (B cells (B-lin)): 0.8249; EmaxT,ErythroidII [6]: 0.0352; EC50 [6]: 1780 nM; Emax_drug_ErythroidII [6]: 0.0352; EC50 (MK cells (MK-lin)): 1110 nM; EmaxT,MK (MK cells (MK-lin)): 0.3220; Emax_drug_MK (MK cells (MK-lin)): 0.3220; EC50 [7]: 37 nM; EmaxT,LymP [7]: 0.0016; Emax_drug_LymP [7]: 0.0016; EmaxT,MonoP [8]: 0.0016; EC50 [8]: 178 nM; Emax_drug_MonoP [8]: 0.0016; EC50 (monocytes (monocyte-lin)): 299 nM; EmaxT,Mono (monocytes (monocyte-lin)): 0.3048; Emax_drug_Mono (monocytes (monocyte-lin)): 0.3048; EmaxT,ErythroidI [9]: 2.3324; EC50 [9]: 921 nM; Emax_drug_ErythroidI [9]: 2.3324 |
| Cc1c(-c2ccc(N3CCc4cccc(C(=O)Nc5nc6ccccc6s5)c4C3)nc2C(=O)O)cnn1CC12CC3CC(CC(C3)C1)C2 [A_1331852] | 400 nM | 1.51e-7 | 1.51e-7 | 911 nM | 1.14e-6 | 1.14e-6 | 0.687 nM | 2.2504 | 2.2504 | 1.71e-6 | 949 nM | 1.71e-6 | 1000 nM | 2.15e-6 | 2.15e-6 | 1960 nM | 0.0828 | 0.0828 | 13.1 nM | 0.1187 | Emax_drug_B (B cells (B-lin)): 0.1187; EmaxT,ErythroidII [6]: 1.51e-6; EC50 [6]: 1160 nM; Emax_drug_ErythroidII [6]: 1.51e-6; EC50 (MK cells (MK-lin)): 24.1 nM; EmaxT,MK (MK cells (MK-lin)): 0.1880; Emax_drug_MK (MK cells (MK-lin)): 0.1880; EC50 [7]: 21.2 nM; EmaxT,LymP [7]: 1.6e-5; Emax_drug_LymP [7]: 1.6e-5; EmaxT,MonoP [8]: 1.47e-5; EC50 [8]: 182 nM; Emax_drug_MonoP [8]: 1.47e-5; EC50 (monocytes (monocyte-lin)): 15.5 nM; EmaxT,Mono (monocytes (monocyte-lin)): 0.0610; Emax_drug_Mono (monocytes (monocyte-lin)): 0.0610; EmaxT,ErythroidI [9]: 2.5750; EC50 [9]: 32.3 nM; Emax_drug_ErythroidI [9]: 2.5750 |
